Measured values reported in US8796289B2 (AbbVie Inc., priority 2011, dated 2014).

molecular target: GST-tagged-Wee1 kinase (Homo sapiens, UniProt P30291); test: Wee1 time-resolved fluorescence equilibrium binding assay (displacement of Oregon Green-labeled ATP-competitive kinase probe)
Protocol: Wee1 kinase was assayed using a time-resolved fluorescence equilibrium binding assay monitoring displacement of a rapidly reversible Oregon Green-labeled ATP-competitive kinase probe (N-(2-(2-(2-(4-(4-(5-chloro-4-(2-(1-hydroxycyclobutyl)thiazol-5-yl)-1H-pyrrolo[2,3-b]pyridin-2-yl)phenyl)piperazin-1-yl)ethoxy)ethoxy)ethyl)-2′,7′-difluoro-3′,6′-dihydroxy-3-oxo-3H-spiro[isobenzofuran-1,9′-xanthene]-5-carboxamide) by competitive Wee1 inhibitors.

GST-tagged-Wee1 kinase, sequence (P30291 whole entry): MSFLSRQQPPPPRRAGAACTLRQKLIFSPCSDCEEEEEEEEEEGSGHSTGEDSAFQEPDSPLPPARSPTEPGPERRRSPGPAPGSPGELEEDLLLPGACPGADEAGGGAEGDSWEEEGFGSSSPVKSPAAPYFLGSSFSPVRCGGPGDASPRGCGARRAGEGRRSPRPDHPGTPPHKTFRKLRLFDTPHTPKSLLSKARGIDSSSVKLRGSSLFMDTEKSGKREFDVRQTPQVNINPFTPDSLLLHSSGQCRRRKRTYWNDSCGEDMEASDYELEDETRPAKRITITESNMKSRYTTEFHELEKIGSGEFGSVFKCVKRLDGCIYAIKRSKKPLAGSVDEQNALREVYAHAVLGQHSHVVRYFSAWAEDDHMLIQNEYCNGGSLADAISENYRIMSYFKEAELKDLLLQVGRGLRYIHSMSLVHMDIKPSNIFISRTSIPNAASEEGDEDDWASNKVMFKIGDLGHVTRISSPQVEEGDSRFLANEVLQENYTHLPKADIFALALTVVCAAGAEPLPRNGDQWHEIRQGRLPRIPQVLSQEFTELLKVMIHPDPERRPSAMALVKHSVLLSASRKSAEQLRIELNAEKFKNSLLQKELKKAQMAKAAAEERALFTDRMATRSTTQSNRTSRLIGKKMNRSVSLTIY

**Q.** How did the Ki turn out when `Cc1nn(-c2c(Cl)cccc2Cl)c(=O)c2cnc(Nc3ccc4c(c3)CN(C(=O)C3CC3)CC4(C)C)nc12` [Example 440, 2-{[2-(cyclopropylcarbonyl)-4,4-dimethyl-1,2,3,4-tetrahydroisoquinolin-7-yl]amino}-6-(2,6-dichlorophenyl)-8-methylpyrimido[4,5-d]pyridazin-5(6H)-one] was run?
**A.** 0.82 nM

**Q.** With `O=c1c2cnc(Nc3ccc(C4CCCNC4)cc3)nc2c(C(F)F)nn1-c1c(Cl)cccc1Cl` (stereo not shown) [Example 479, 6-(2,6-dichlorophenyl)-8-(difluoromethyl)-2-{[4-(piperidin-3-yl)phenyl]amino}pyrimido[4,5-d]pyridazin-5(6H)-one] as the molecule, how does the Ki read?
**A.** 0.29 nM

**Q.** Which Ki does the source give for `C=CCn1nc(-c2ccccc2)c2nc(Nc3ccc(N4CCN(C(C)C)CC4)cc3)ncc2c1=O` [Example 139, 6-allyl-2-{[4-(4-isopropylpiperazin-1-yl)phenyl]amino}-8-phenylpyrimido[4,5-d]pyridazin-5(6H)-one] here?
**A.** 5 nM

**Q.** `COC(=O)c1cccc(-c2nn(-c3c(Cl)cccc3Cl)c(=O)c3cnc(Nc4ccc(N5CCN(C)CC5)cc4)nc23)n1` [Example 159, methyl 6-[6-(2,6-dichlorophenyl)-2-{[4-(4-methylpiperazin-1-yl)phenyl]amino}-5-oxo-5,6-dihydropyrimido[4,5-d]pyridazin-8-yl]pyridine-2-carboxylate] was tested. Which Ki did it give?
**A.** 0.06 nM

**Q.** With `CCc1nn(-c2c(Cl)cccc2Cl)c(=O)c2cnc(Nc3ccc(N4C[C@H]5C[C@@H]4CN5)cc3)nc12` [Example 468, 2-({4-[(1R,4R)-2,5-diazabicyclo[2.2.1]hept-2-yl]phenyl}amino)-6-(2,6-dichlorophenyl)-8-ethylpyrimido[4,5-d]pyridazin-5(6H)-one] as the molecule, how does the Ki read?
**A.** 0.69 nM

**Q.** For `Cc1nn(-c2c(Cl)cccc2Cl)c(=O)c2cnc(Nc3cccc(N4CCNCC4)c3)nc12` [Example 506, 6-(2,6-dichlorophenyl)-8-methyl-2-{[3-(piperazin-1-yl)phenyl]amino}pyrimido[4,5-d]pyridazin-5(6H)-one], which Ki is on record?
**A.** 0.54 nM

**Q.** With `CN1Cc2cc(Nc3ncc4c(=O)n(C5CCNCC5)nc(-c5ccccn5)c4n3)ccc2C(C)(C)C1` [Example 304, 6-(piperidin-4-yl)-8-(pyridin-2-yl)-2-[(2,4,4-trimethyl-1,2,3,4-tetrahydroisoquinolin-7-yl)amino]pyrimido[4,5-d]pyridazin-5(6H)-one] as the molecule, how does the Ki read?
**A.** 610 nM

**Q.** With `CN1CCN(c2ccc(Nc3ncc4c(=O)n(-c5c(Cl)cccc5Cl)ncc4n3)cc2)CC1` [Example 323, 6-(2,6-dichlorophenyl)-2-{[4-(4-methylpiperazin-1-yl)phenyl]amino}pyrimido[4,5-d]pyridazin-5(6H)-one] as the molecule, how does the Ki read?
**A.** 0.49 nM

**Q.** `O=c1c2cnc(Nc3ccc(N4CCNCC4)cc3)nc2c(CO)nn1-c1c(Cl)cccc1Cl` [Example 430, 6-(2,6-dichlorophenyl)-8-(hydroxymethyl)-2-{[4-(piperazin-1-yl)phenyl]amino}pyrimido[4,5-d]pyridazin-5(6H)-one] was tested. Which Ki did it give?
**A.** 0.2 nM

**Q.** Which Ki does the source give for `CN1CCN(c2ccc(Nc3ncc4c(=O)n(-c5ccccc5)nc(-c5ccc(-c6ncccn6)cc5)c4n3)cc2)CC1` [Example 59, 2-{[4-(4-methylpiperazin-1-yl)phenyl]amino}-6-phenyl-8-[4-(pyrimidin-2-yl)phenyl]pyrimido[4,5-d]pyridazin-5(6H)-one] here?
**A.** 3 nM

**Q.** How did the Ki turn out when `Cc1cc(Nc2ncc3c(=O)n(-c4ccccc4C)nc(-c4ccco4)c3n2)ccc1N1CCCN(C(C)C)CC1` [Example 246, 8-(furan-2-yl)-6-(2-methylphenyl)-2-({3-methyl-4-[4-(propan-2-yl)-1,4-diazepan-1-yl]phenyl}amino)pyrimido[4,5-d]pyridazin-5(6H)-one] was run?
**A.** 0.3 nM

**Q.** With `C=CCn1nc(-c2cccs2)c2nc(Nc3ccc(CN(C)C)cc3)ncc2c1=O` [Example 210, 2-({4-[(dimethylamino)methyl]phenyl}amino)-6-(prop-2-en-1-yl)-8-(thiophen-2-yl)pyrimido[4,5-d]pyridazin-5(6H)-one] as the molecule, how does the Ki read?
**A.** 33 nM

**Q.** How did the Ki turn out when `C=CCn1nc(-c2ccccc2)c2nc(Nc3ccc(N4CCCC4=O)cc3)ncc2c1=O` [Example 142, 6-allyl-2-{[4-(2-oxopyrrolidin-1-yl)phenyl]amino}-8-phenylpyrimido[4,5-d]pyridazin-5(6H)-one] was run?
**A.** 57 nM

**Q.** With `CN1CCN(c2ccc(Nc3ncc4c(=O)[nH]nc(C5CCCC5)c4n3)cc2)CC1` [Example 14, 8-cyclopentyl-2-{[4-(4-methylpiperazin-1-yl)phenyl]amino}pyrimido[4,5-d]pyridazin-5(6H)-one] as the molecule, how does the Ki read?
**A.** 1100 nM

**Q.** `CN1CCN(c2ccc(Nc3ncc4c(=O)n(-c5c(Cl)cccc5Cl)nc(-c5cncn5C)c4n3)cc2)CC1` [Example 203, 6-(2,6-dichlorophenyl)-8-(1-methyl-1H-imidazol-5-yl)-2-{[4-(4-methylpiperazin-1-yl)phenyl]amino}pyrimido[4,5-d]pyridazin-5(6H)-one] was tested. Which Ki did it give?
**A.** 0.2 nM

**Q.** With `O=c1c2cnc(Nc3ccc4c(c3)CCNC4)nc2c(C(F)F)nn1-c1c(Cl)cccc1Cl` [Example 473, 6-(2,6-dichlorophenyl)-8-(difluoromethyl)-2-(1,2,3,4-tetrahydroisoquinolin-6-ylamino)pyrimido[4,5-d]pyridazin-5(6H)-one] as the molecule, how does the Ki read?
**A.** 0.38 nM

**Q.** For `CN1CCN(c2ccc(Nc3ncc4c(=O)n(-c5ccccc5Cl)nc(-c5ccccc5)c4n3)cc2)CC1` [Example 29, 6-(2-chlorophenyl)-2-{[4-(4-methylpiperazin-1-yl)phenyl]amino}-8-phenylpyrimido[4,5-d]pyridazin-5(6H)-one], which Ki is on record?
**A.** < 1 nM

**Q.** For `CN1Cc2cc(Nc3ncc4c(=O)n(-c5c(Cl)cccc5Cl)nc(-c5cnn(C)c5)c4n3)ccc2C2(CC2)C1` [Example 149, 6-(2,6-dichlorophenyl)-2-[(2′-methyl-2′,3′-dihydro-1′H-spiro[cyclopropane-1,4′-isoquinolin]-7′-yl)amino]-8-(1-methyl-1H-pyrazol-4-yl)pyrimido[4,5-d]pyridazin-5(6H)-one], which Ki is on record?
**A.** 0.05 nM

**Q.** With `Cc1nn(-c2c(Cl)cccc2Cl)c(=O)c2cnc(Nc3ccc4c(c3)CN(C)CC4)nc12` [Example 490, 6-(2,6-dichlorophenyl)-8-methyl-2-[(2-methyl-1,2,3,4-tetrahydroisoquinolin-7-yl)amino]pyrimido[4,5-d]pyridazin-5(6H)-one] as the molecule, how does the Ki read?
**A.** 0.11 nM

**Q.** Which Ki does the source give for `Cc1nn(-c2c(Cl)cncc2Cl)c(=O)c2cnc(Nc3ccc4c(c3)CN(C)C4(C)C)nc12` [Example 488, 6-(3,5-dichloropyridin-4-yl)-8-methyl-2-[(1,1,2-trimethyl-2,3-dihydro-1H-isoindol-5-yl)amino]pyrimido[4,5-d]pyridazin-5(6H)-one] here?
**A.** 0.29 nM

**Q.** Which Ki does the source give for `CCc1nn(-c2c(Cl)cccc2Cl)c(=O)c2cnc(Nc3ccc4c(c3)CN(C)C4)nc12` [Example 494, 6-(2,6-dichlorophenyl)-8-ethyl-2-[(2-methyl-2,3-dihydro-1H-isoindol-5-yl)amino]pyrimido[4,5-d]pyridazin-5(6H)-one] here?
**A.** 0.31 nM

**Q.** With `CCc1nn(-c2c(Cl)cccc2Cl)c(=O)c2cnc(Nc3ccc4c(c3)CN(C)CC4)nc12` [Example 493, 6-(2,6-dichlorophenyl)-8-ethyl-2-[(2-methyl-1,2,3,4-tetrahydroisoquinolin-7-yl)amino]pyrimido[4,5-d]pyridazin-5(6H)-one] as the molecule, how does the Ki read?
**A.** 0.86 nM

**Q.** For `CN1CCN(c2ccc(Nc3ncc4c(=O)n(-c5c(Cl)cccc5Cl)nc(-c5ccco5)c4n3)cc2)CC1` [Example 69, 6-(2,6-dichlorophenyl)-8-(2-furyl)-2-{[4-(4-methylpiperazin-1-yl)phenyl]amino}pyrimido[4,5-d]pyridazin-5(6H)-one], which Ki is on record?
**A.** 0.06 nM

**Q.** Which Ki does the source give for `CC1(C)CNCc2cc(Nc3ncc4c(=O)n(-c5c(Cl)cccc5Cl)nc(C(F)F)c4n3)ccc21` [Example 478] here?
**A.** 0.17 nM

**Q.** For `Cc1ccccc1-n1nc(-c2ccco2)c2nc(Nc3ccc(N4CCN(C(C)C)CC4)cc3)ncc2c1=O` [Example 107, 8-(2-furyl)-2-{[4-(4-isopropylpiperazin-1-yl)phenyl]amino}-6-(2-methylphenyl)pyrimido[4,5-d]pyridazin-5(6H)-one], which Ki is on record?
**A.** 1 nM

**Q.** For `CN1CCN(c2ccc(Nc3ncc4c(=O)n(-c5c(Cl)cccc5Cl)nc(-c5cccc(C(=O)N6CCCCC6)c5)c4n3)cc2)CC1` [Example 194, 6-(2,6-dichlorophenyl)-2-{[4-(4-methylpiperazin-1-yl)phenyl]amino}-8-[3-(piperidin-1-ylcarbonyl)phenyl]pyrimido[4,5-d]pyridazin-5(6H)-one], which Ki is on record?
**A.** < 1 nM

**Q.** How did the Ki turn out when `CN1CCN(c2ccc(Nc3ncc4c(=O)n(-c5c(Cl)cccc5Cl)nc(-c5cccc(NNc6c(Cl)cccc6Cl)n5)c4n3)cc2)CC1` [Example 76, 6-(2,6-dichlorophenyl)-8-{6-[2-(2,6-dichlorophenyl)hydrazino]pyridin-2-yl}-2-{[4-(4-methylpiperazin-1-yl)phenyl]amino}pyrimido[4,5-d]pyridazin-5(6H)-one] was run?
**A.** 4 nM

**Q.** Which Ki does the source give for `CN1CCN(c2ccc(Nc3ncc4c(=O)n(-c5ccccc5)nc(-c5ccccn5)c4n3)cc2)CC1` [Example 102, 2-{[4-(4-methylpiperazin-1-yl)phenyl]amino}-6-phenyl-8-(pyridin-2-yl)pyrimido[4,5-d]pyridazin-5(6H)-one] here?
**A.** 6 nM

**Q.** For `Cc1ccccc1-n1nc(-c2ccc(-c3ncccn3)cc2)c2nc(Nc3ccc(N4CCN(C)CC4)cc3)ncc2c1=O` [Example 64, 6-(2-methylphenyl)-2-{[4-(4-methylpiperazin-1-yl)phenyl]amino}-8-[4-(pyrimidin-2-yl)phenyl]pyrimido[4,5-d]pyridazin-5(6H)-one], which Ki is on record?
**A.** 0.3 nM

**Q.** With `COCc1nn(-c2c(Cl)cccc2Cl)c(=O)c2cnc(Nc3ccc(N4CCN(C)CC4)cc3)nc12` [Example 423, 6-(2,6-dichlorophenyl)-8-(methoxymethyl)-2-{[4-(4-methylpiperazin-1-yl)phenyl]amino}pyrimido[4,5-d]pyridazin-5(6H)-one] as the molecule, how does the Ki read?
**A.** 0.7 nM

**Q.** `Cc1nn(-c2c(F)cccc2Cl)c(=O)c2cnc(Nc3ccc4c(c3)CC(N(C)C)C4)nc12` (stereo not shown) [Example 366, 6-(2-chloro-6-fluorophenyl)-2-{[2-(dimethylamino)-2,3-dihydro-1H-inden-5-yl]amino}-8-methylpyrimido[4,5-d]pyridazin-5(6H)-one] was tested. Which Ki did it give?
**A.** 0.53 nM
